The record followed here is patent US20250154163A1, “Pyrimidinone-Containing 17-Beta-Hydroxysteroid Dehydrogenase Type 13 Inhibitors” (ENANTA PHARMACEUTICALS, INC., priority 2023, published 2025).

The experiment has as its system human precision cut lung slices from a donor with idiopathic pulmonary fibrosis. As to the kind of experiment: Human precision cut lung slice (PCLS) culture, donor with idiopathic pulmonary fibrosis. The class given is cell-based. The following applies: IPF donor PCLS; FIG. 2b. How it is done:
Human PCLS were generated from lung explants of patients with pulmonary fibrosis (donor ID #221028) or normal donor (donor ID #220730). Cryopreserved hPCLSs were obtained from Institute for In Vitro Sciences (IIVS) and maintained with air-liquid interface culture approach under 37° C., 5% CO2 and 95% humidity. hPCLS were cultured in DMEM-F12 (Invitrogen, Cat No. 11330032) containing 0.2% primocin (Invivogen, Cat No. ant-pm-1) and 1% insulin-transferrin-selenium (ITS-G; Invitrogen, Cat No. 41400045), after initial acclimation in acclimation media, including culture media supplemented with 1% antibiotic antimycotic solution (Invitrogen, Cat No. 15240062), 2 mM Hydrocortisone (Millipore Sigma,) and 5 mg/ml 2-phospho-L-abscorbic acid trisodium salt (Millipore Sigma, Cat No. 49752-10G) for 3 days. Slices of tissue were flatly grown in the tissue culture inserts with 0.4 μm pores of a 12-well plate (StemCell Technologies, Cat No. 1001027), supplemented with 100 μl culture media in the apical side containing PCLSs, and 900 μL culture media in the basal compartment. Media were changed every 48 hours. hPCLS were treated and randomly assigned in replicates of 6-8 per condition 7 days after recovery from cryopreservation. […] IPF donor PCLS were collected at day 8 for subsequent RNA isolation and gene expression quantification. […]

With `COc1ccc(-c2nc3sc4c(O)c(Cl)ccc4c3c(=O)n2Cc2cnco2)c(C2CC2)c1` [Example 26, 7-chloro-2-(2-cyclopropyl-4-methoxyphenyl)-8-hydroxy-3-(oxazol-5-ylmethyl)benzo[4,5]thieno[2,3-d]pyrimidin-4(3H)-one], the “secreted fibronectin (lung fibronectin content)” value was “decreased”.
